Data: patent US20110124588A1, “SYNERGISTIC ACTIVE INGREDIENT COMBINATIONS” (Bayer Cropscience AG, priority 2008, published 2011)
Like-named read-outs stand apart in the source and are kept apart here.

Key:
Phaedon cochleariae = Phaedon cochleariae larvae test (sprayed cabbage leaves); format: in vivo, mustard beetle (Phaedon cochleariae) larvae; conditions: single active compound; for pest or weed control at 20 g/ha / pest or weed control at 4 g/ha / pest or weed control at 100 g/ha / pest or weed control at 0.8 g/ha / pest or weed control at 0.16 g/ha: Phaedon cochleariae
Protocol: (§1) If the actual kill rate exceeds the calculated value, the kill of the combination is superadditive, i.e. a synergistic effect is present. In this case, the actually observed kill rate must exceed the value calculated using the above formula for the expected kill rate (E).
Solvents: 78 parts by weight of acetone • • 1.5 parts by weight of dimethylformamide Emulsifier: 0.5 part by weight of alkylaryl polyglycol ether
After the desired period of time, the kill in % is determined 100% means that all beetle larvae have been killed; 0% means that none of the beetle larvae have been killed. The kill rates determined are entered into Colby's formula.

Tetranychus urticae = Tetranychus urticae test (OP-resistant/spray treatment); format: in vivo, greenhouse red spider mite (Tetranychus urticae); conditions: Tetranychus urticae, 48 h; single active compound, 4 g/ha, after 2 d; read-out: Kill in % after 2 d
Text: (§2) The expected activity of a given combination of two active compounds can be calculated as follows, according to S. R. Colby, Weeds 15 (1967), 20-22:
(§3) X is the kill rate, expressed as a percentage of the untreated control, when employing active compound A at an application rate of m g/ha or in a concentration of m ppm, Y is the kill rate, expressed as a percentage of the untreated control, when employing active compound B at an application rate of n g/ha or in a concentration of n ppm and E is the kill rate, expressed as a percentage of the untreated control, when employing active compounds A and B at application rates of m and n g/ha or in a concentration of m and n ppm, then
as §1
(§4) solvents: 78 parts by weight of acetone • • 1.5 parts by weight of dimethylformamide emulsifier: 0.5 part by weight of alkylaryl polyglycol ether
(§5) To produce a suitable preparation of active compound, 1 part by weight of active compound is mixed with the stated amounts of solvents and emulsifier, and the concentrate is diluted with emulsifier-containing water to the desired concentration.
Discs of bean leaves (Phaseolus vulgaris) which are infested by all stages of the greenhouse red spider mite (Tetranychus urticae) are sprayed with an active compound preparation of the desired concentration.
After the desired period of time, the activity in % is determined 100% means that all spider mites have been killed; 0% means that none of the spider mites have been killed.

Myzus persicae = Myzus persicae test (spray treatment of infested cabbage leaves); format: in vivo, green peach aphid (Myzus persicae)
Protocol: as §1, §4
After the desired period of time, the kill in % is determined 100% means that all aphids have been killed; 0% means that none of the aphids have been killed. The kill rates determined are entered into Colby's formula.

Spodoptera frugiperda = Spodoptera frugiperda larvae test (sprayed cabbage leaves); format: in vivo, army worm (Spodoptera frugiperda) larvae
Text: as §2, §3, §1, §4, §5
Cabbage leaves (Brassica oleracea) are treated by spraying with the active compound preparation of the desired concentration and are populated with larvae of the army worm (Spodoptera frugiperda) while the leaves are still moist.
After the desired period of time, the kill in % is determined 100% means that all caterpillars have been killed; 0% means that none of the caterpillars have been killed. The kill rates determined are entered into Colby's formula.

[1] = 144 h, 6 d, read-out: Kill in % after 6 d
[2] = 144 h, 4 g/ha, 6 d, read-out: Kill in % after 6 d
[3] = Myzus persicae, 144 h, read-out: Kill in % after 6 d
[4] = Spodoptera frugiperda, 144 h, read-out: Kill in % after 6 d
[5] = Spodoptera frugiperda, 48 h, read-out: Kill in % after 2 d
[6] = 144 h, 0.8 g/ha, 6 d, read-out: Kill in % after 6 d
[7] = single active compound, 0.8 g/ha, 6 d
[8] = Myzus persicae, 24 h, read-out: Kill in % after 1 d
[9] = 48 h, 2 d, read-out: Kill in % after 2 d

CC(C)c1cc(Oc2ccccc2)cc(C(C)C)c1NC(=S)NC(C)(C)C [diafenthiuron]
pest or weed control at 20 g/ha (Phaedon cochleariae; [1]): 0% | pest or weed control at 4 g/ha (Tetranychus urticae): 0%

CN/C(=N\[N+](=O)[O-])NCc1cnc(Cl)s1 [clothianidin]
pest or weed control at 4 g/ha (Phaedon cochleariae; [2]): 50% | pest or weed control at 0.16 g/ha (Myzus persicae; [3]): 40%

COc1cccc(C(=O)NN(C(=O)c2cc(C)cc(C)c2)C(C)(C)C)c1C [methoxyfenozide]
pest or weed control at 4 g/ha (Spodoptera frugiperda; [4]): 50% | pest or weed control at 20 g/ha (Phaedon cochleariae; [1]): 0% | pest or weed control at 0.16 g/ha (Myzus persicae; [3]): 0% | pest or weed control at 0.8 g/ha (Myzus persicae; [3]): 0%

O=C(NC(=O)c1c(F)cccc1F)Nc1ccc(Oc2ccc(C(F)(F)F)cc2Cl)cc1F [flufenoxuron]
pest or weed control at 100 g/ha (Spodoptera frugiperda; [5]): 17% | pest or weed control at 0.8 g/ha (Spodoptera frugiperda; [4]): 67% | pest or weed control at 100 g/ha (Phaedon cochleariae; [1]): 0%

Cc1cc(C(F)(C(F)(F)F)C(F)(F)F)ccc1NC(=O)c1cccc(Cl)c1C(=O)N[C@@H](C)CS(C)(=O)=O [compound II-28-2]
pest or weed control at 0.16 g/ha (Spodoptera frugiperda; Spodoptera frugiperda, 144 h, single active compound, 0.16 g/ha, 6 d, read-out: Kill in % after 6 d): 50% | pest or weed control at 0.8 g/ha (Phaedon cochleariae; [6]): 0% | pest or weed control at 0.032 g/ha (Myzus persicae; Myzus persicae, 144 h, single active compound, 0.032 g/ha, 6 d, read-out: Kill in % after 6 d): 0%

milbemectin
Kill in % after 6 d (Spodoptera frugiperda; [7]): 0% | Kill in % after 6 d (Phaedon cochleariae; 0.8 g/ha, 6 d): 0%

O=[N+]([O-])/N=C1\NCCN1Cc1cnc(Cl)s1 [imidaclothiz]
pest or weed control at 4 g/ha (Phaedon cochleariae; [2]): 0%

N#Cc1nn(-c2c(Cl)cc(C(F)(F)F)cc2Cl)c(N)c1[S+]([O-])C(F)(F)F (centres unmarked) [fipronil]
pest or weed control at 0.8 g/ha (Myzus persicae; [3]): 0%

CC1(C)[C@H](/C=C(\Cl)C(F)(F)F)[C@@H]1C(=O)O[C@H](C#N)c1cccc(Oc2ccccc2)c1 [gamma-cyhalothrin]
pest or weed control at 0.16 g/ha (Spodoptera frugiperda; [4]): 17% | pest or weed control at 0.16 g/ha (Phaedon cochleariae; [1]): 0% | pest or weed control at 0.032 g/ha (Myzus persicae; [3]): 0%

N#C/N=C1\SCCN1Cc1ccc(Cl)nc1 [thiacloprid]
pest or weed control at 20 g/ha (Spodoptera frugiperda; [4]): 50% | pest or weed control at 20 g/ha (Phaedon cochleariae; [1]): 50% | pest or weed control at 0.16 g/ha (Myzus persicae; [8]): 0%

pyridaben
Kill in % after 6 d (Phaedon cochleariae; 4 g/ha, 6 d): 50% | Kill in % after 6 d (Myzus persicae; [7]): 0%

CC(C)N1C(=O)N(c2ccccc2)CS/C1=N\C(C)(C)C [buprofezin]
pest or weed control at 100 g/ha (Phaedon cochleariae; [1]): 0% | pest or weed control at 4 g/ha (Myzus persicae; [8]): 0%

Cc1cc(C(F)(C(F)(F)F)C(F)(F)F)ccc1NC(=O)c1cccc(I)c1C(=O)NC(C)(C)CS(C)(=O)=O [flubendiamid, flubendiamide]
pest or weed control at 0.8 g/ha (Spodoptera frugiperda; [4]): 67% | pest or weed control at 20 g/ha (Phaedon cochleariae; [1]): 50% | pest or weed control at 0.8 g/ha (Myzus persicae; [8]): 0% | pest or weed control at 4 g/ha (Myzus persicae; [8]): 0%

CC1(C)C(C=C(Cl)Cl)C1C(=O)OC(C#N)c1ccc(F)c(Oc2ccccc2)c1 (stereo not drawn) [β-cyfluthrin, betacyfluthrin]
pest or weed control at 0.16 g/ha (Spodoptera frugiperda; [4]): 0% | pest or weed control at 0.16 g/ha (Phaedon cochleariae; [1]): 0% | pest or weed control at 0.0064 g/ha (Myzus persicae; [3]): 0% | pest or weed control at 0.032 g/ha (Myzus persicae; [3]): 0%

FC(F)(F)c1ccc(OCCCOc2c(Cl)cc(OCC=C(Cl)Cl)cc2Cl)nc1 [pyridalyl]
pest or weed control at 20 g/ha (Spodoptera frugiperda; [5]): 67%

CCOP(=S)(OCC)Oc1nc(Cl)c(Cl)cc1Cl [chlorpyrifos]
Kill in % after 6 d (Spodoptera frugiperda; single active compound, 4 g/ha, 6 d): 33% | Kill in % after 6 d (Myzus persicae; single active compound, 0.16 g/ha, 6 d): 0% | Kill in % after 6 d (Myzus persicae; [7]): 0%

CCCSP(=O)(OCC)Oc1ccc(Br)cc1Cl (centres unmarked) [profenofos]
pest or weed control at 20 g/ha (Phaedon cochleariae; [9]): 50%

N#CCNC(=O)c1cnccc1C(F)(F)F [flonicamid]
pest or weed control at 20 g/ha (Phaedon cochleariae; [9]): 0% | pest or weed control at 0.8 g/ha (Phaedon cochleariae; [6]): 0% | pest or weed control at 100 g/ha (Phaedon cochleariae; [1]): 0% | pest or weed control at 0.8 g/ha (Myzus persicae; [8]): 0% | pest or weed control at 4 g/ha (Myzus persicae; [8]): 20% | pest or weed control at 0.032 g/ha (Myzus persicae; [3]): 0%
